In PubChem BioAssay AID330 (DTP/NCI, 2004):
“And” between values parts separate entries of the source, which are not always exact repeats. Equal entries are not always repeated. Inconclusive results and toxic doses are left out. The calls were made as follows: active = survival T/C of 150% or more; inactive = T/C below 125% in these data. Peptide text beside a SMILES is read from it.

Tested on: P388 leukemia ip, CD2F1 mice, survival T/C
Test: NCI In Vivo Anticancer Drug Screen. Data for tumor model P388 Leukemia (intraperitoneal) in CD2F1 (CDF1) mice
Conditions: endpoint: median survival time, higher = longer survival
In short: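 Mice carrying the transplanted tumor received test compound or vehicle. Survival was recorded in each group, and the value is the treated-group measurement divided by that of the vehicle-treated control group.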

[1] = dose: 60.0 mg/kg/injection, schedule: Q01DX005 (ip), vehicle: Klucel (hydroxypropylcellulose) (HPC)
[2] = dose: 120.0 mg/kg/injection, schedule: Q01DX005 (ip), vehicle: Klucel (hydroxypropylcellulose) (HPC)
[3] = dose: 240.0 mg/kg/injection, schedule: Q01DX005 (ip), vehicle: Klucel (hydroxypropylcellulose) (HPC)
[4] = dose: 50.0 mg/kg/injection, schedule: Q01DX005 (ip), vehicle: saline with Tween-80
[5] = dose: 100.0 mg/kg/injection, schedule: Q01DX005 (ip), vehicle: saline with Tween-80
[6] = dose: 200.0 mg/kg/injection, schedule: Q01DX005 (ip), vehicle: saline with Tween-80
[7] = dose: 60.0 mg/kg/injection, schedule: Q01DX005 (ip), vehicle: saline with Tween-80
[8] = dose: 120.0 mg/kg/injection, schedule: Q01DX005 (ip), vehicle: saline with Tween-80
[9] = dose: 240.0 mg/kg/injection, schedule: Q01DX005 (ip), vehicle: saline with Tween-80
[10] = dose: 50.0 mg/kg/injection, schedule: Q01DX005 (ip), vehicle: Klucel (hydroxypropylcellulose) (HPC)
[11] = dose: 100.0 mg/kg/injection, schedule: Q01DX005 (ip), vehicle: Klucel (hydroxypropylcellulose) (HPC)
[12] = dose: 200.0 mg/kg/injection, schedule: Q01DX005 (ip), vehicle: Klucel (hydroxypropylcellulose) (HPC)
[13] = dose: 100.0 mg/kg/injection, schedule: Q04DX002 (ip), vehicle: saline with Tween-80
[14] = dose: 50.0 mg/kg/injection, schedule: Q01DX009 (ip), vehicle: saline with Tween-80
[15] = dose: 100.0 mg/kg/injection, schedule: Q01DX009 (ip), vehicle: saline with Tween-80
[16] = dose: 100.0 mg/kg/injection, schedule: Q01DX001 (ip), vehicle: saline with Tween-80
[17] = dose: 200.0 mg/kg/injection, schedule: Q01DX001 (ip), vehicle: saline with Tween-80
[18] = dose: 400.0 mg/kg/injection, schedule: Q01DX001 (ip), vehicle: saline with Tween-80

Measured: T/C

O=S(=O)(O)O.[NH-]CCC[NH-].[Pt+2]
active: dose: 6.25 mg/kg/injection, schedule: Q04DX002 (ip), vehicle: saline 168 % of control | dose: 12.5 mg/kg/injection, schedule: Q04DX002 (ip), vehicle: saline 158 % of control

CCOC(=O)CN(CC(=O)OCC)c1ccccc1OCCOc1ccccc1N(CC(=O)OCC)CC(=O)OCC
inactive: [1] 95 % of control | [2] 96 % of control | [3] 93 % of control

CCOC(=O)c1sc(=S)n(C(C)C)c1C
inactive: dose: 12.5 mg/kg/injection, schedule: Q01DX005 (ip), vehicle: saline with Tween-80 101 % of control | dose: 25.0 mg/kg/injection, schedule: Q01DX005 (ip), vehicle: saline with Tween-80 101 % of control | [4] 101 % of control and 102 % of control | [5] 100 % of control | [6] 98 % of control

N#CC(C(=O)CCc1nc2ccccc2[nH]1)c1ccccc1Cl (stereo unspecified)
inactive: [7] 111 % of control | [8] 105 % of control | [9] 96 % of control

COc1cc(CC(=O)O)c([N+](=O)[O-])cc1C
inactive: dose: 25.0 mg/kg/injection, schedule: Q01DX001 (ip), vehicle: Klucel (hydroxypropylcellulose) (HPC) 90 % of control | dose: 50.0 mg/kg/injection, schedule: Q01DX001 (ip), vehicle: Klucel (hydroxypropylcellulose) (HPC) 91 % of control | dose: 100.0 mg/kg/injection, schedule: Q01DX001 (ip), vehicle: Klucel (hydroxypropylcellulose) (HPC) 91 % of control

O=C(O)c1cccc2c1C(=O)c1cccc3snc-2c13
inactive: [10] 101 % of control | [11] 99 % of control | [12] 109 % of control

CC(C)C(NC(=O)C(NC(=O)C(CCCN=C(N)N)NC(=O)C(N)CCCCN)C(C)C)C(N)=O (stereo unspecified) (H-KRVV-NH2; configuration not given here)
inactive: dose: 12.5 mg/kg/injection, schedule: Q01DX009 (ip), vehicle: water 114 % of control | dose: 25.0 mg/kg/injection, schedule: Q01DX009 (ip), vehicle: water 104 % of control | dose: 50.0 mg/kg/injection, schedule: Q01DX009 (ip), vehicle: water 110 % of control | dose: 100.0 mg/kg/injection, schedule: Q01DX009 (ip), vehicle: water 104 % of control | dose: 200.0 mg/kg/injection, schedule: Q01DX009 (ip), vehicle: water 99 % of control

NN=C(c1ccc(Br)cc1)c1ccc(Br)cc1
inactive: dose: 25.0 mg/kg/injection, schedule: Q04DX002 (ip), vehicle: saline with Tween-80 100 % of control | dose: 50.0 mg/kg/injection, schedule: Q04DX002 (ip), vehicle: saline with Tween-80 101 % of control | [13] 100 % of control and 105 % of control

CCN(Cc1ccc(Cl)c(Cl)c1)c1ccc2nc(N)nc(N)c2c1C
inactive: dose: 6.25 mg/kg/injection, schedule: Q01DX009 (ip), vehicle: Klucel (hydroxypropylcellulose) (HPC) 121 % of control | dose: 12.5 mg/kg/injection, schedule: Q01DX009 (ip), vehicle: Klucel (hydroxypropylcellulose) (HPC) 116 % of control | dose: 12.5 mg/kg/injection, schedule: Q04DX003 (ip), vehicle: water 116 % of control and 91 % of control | dose: 25.0 mg/kg/injection, schedule: Q01DX009 (ip), vehicle: Klucel (hydroxypropylcellulose) (HPC) 114 % of control | dose: 25.0 mg/kg/injection, schedule: Q04DX003 (ip), vehicle: water 114 % of control and 122 % of control | dose: 100.0 mg/kg/injection, schedule: Q04DX003 (ip), vehicle: water 117 % of control and 90 % of control
active: dose: 50.0 mg/kg/injection, schedule: Q04DX003 (ip), vehicle: water 155 % of control

Cc1cc(=O)oc2c1c(=O)[nH]n2-c1ccccc1
inactive: [10] 95 % of control | [11] 87 % of control | [12] 86 % of control

CC(=O)C1=C(C)C2CC3(C)CC(C2(C)C1)C3(C)C (stereo unspecified)
inactive: [4] 100 % of control | [5] 102 % of control | [6] 100 % of control

Cn1ncc2c(N(CCO)CCO)ncnc21
inactive: dose: 50.0 mg/kg/injection, schedule: Q01DX005 (ip), vehicle: saline 100 % of control | dose: 100.0 mg/kg/injection, schedule: Q01DX005 (ip), vehicle: saline 100 % of control | dose: 200.0 mg/kg/injection, schedule: Q01DX005 (ip), vehicle: saline 95 % of control

O=S1(=O)C=C(c2ccccc2)C(c2ccccc2)=C1
inactive: dose: 12.5 mg/kg/injection, schedule: Q04DX003 (ip), vehicle: saline with Tween-80 100 % of control | dose: 25.0 mg/kg/injection, schedule: Q04DX003 (ip), vehicle: saline with Tween-80 100 % of control | dose: 50.0 mg/kg/injection, schedule: Q04DX003 (ip), vehicle: saline with Tween-80 109 % of control

COC1=CC(=[O+]C)/C(=C/c2c(OC)cc(OC)cc2OC)C(OC)=C1
inactive: [14] 94 % of control | [15] 86 % of control | dose: 200.0 mg/kg/injection, schedule: Q01DX009 (ip), vehicle: saline with Tween-80 86 % of control

CC(=O)OC1CCC2(C)C(=CCC3C2CCC2(C)C3CC3C(c4ccccc4)=NC(c4ccccc4)C32C(C)=O)C1 (stereo unspecified)
inactive: [16] 93 % of control | [13] 108 % of control | [17] 91 % of control | dose: 200.0 mg/kg/injection, schedule: Q04DX002 (ip), vehicle: saline with Tween-80 100 % of control | [18] 90 % of control | dose: 400.0 mg/kg/injection, schedule: Q04DX002 (ip), vehicle: saline with Tween-80 105 % of control

C#CC1CCC(NC(=O)NCCCCCCNC(=O)NC2CCC(C#C)CC2)CC1 (stereo unspecified)
inactive: [10] 90 % of control | [11] 94 % of control | [12] 86 % of control

CCCCCC1(C2CCCCO2)NC(=O)NC1=O (stereo unspecified)
inactive: [4] 97 % of control | [5] 99 % of control | [6] 91 % of control

[Be]=[Se]
inactive: dose: 7.5 mg/kg/injection, schedule: Q01DX005 (ip), vehicle: other 97 % of control | dose: 15.0 mg/kg/injection, schedule: Q01DX005 (ip), vehicle: other 103 % of control and 108 % of control

C/C=C/C(C#N)OC(C)=O (stereo unspecified)
inactive: dose: 3.75 mg/kg/injection, schedule: Q01DX005 (ip), vehicle: saline 100 % of control | dose: 7.5 mg/kg/injection, schedule: Q01DX005 (ip), vehicle: saline 100 % of control

C/C=C(\CC)C(C#N)O[Si](C)(C)C (stereo unspecified)
inactive: [7] 93 % of control | [8] 98 % of control

Cc1ccc(S(=O)(=O)Nc2nnc(-c3coc4ccc(C)cc4c3=O)s2)cc1
inactive: [4] 89 % of control | [5] 88 % of control

CC(C)(O)c1ccccc1S(=O)c1ccccc1C(C)(C)O
inactive: [16] 93 % of control | [17] 95 % of control | [18] 98 % of control

O=c1c2ccccc2c2sc3c4ccccc4c(=O)c3c12
inactive: [1] 104 % of control | [2] 99 % of control | [3] 97 % of control

COCCOCOCCCC#C[Si](C)(C)C
inactive: [7] 100 % of control | [8] 106 % of control | [9] 106 % of control

COc1ccc(CCN2C=CC(C#N)C=C2)cc1OC
inactive: [10] 91 % of control | [11] 101 % of control | [12] 98 % of control

O=C(Nc1ccc(Cl)cc1)Nc1nnc(-c2ccc(Cl)cc2Cl)o1
inactive: [7] 91 % of control | [8] 86 % of control | [9] 97 % of control

C[Si](C)(C)c1cnc(N)[nH]c1=O
inactive: dose: 25.0 mg/kg/injection, schedule: Q01DX009 (ip), vehicle: saline with Tween-80 115 % of control | [14] 120 % of control | [15] 120 % of control

CC(=O)CCS(=O)Cc1ccccc1 (stereo unspecified)
inactive: [7] 103 % of control | [8] 98 % of control | [9] 111 % of control

O=c1c2ccccc2c(Br)c(Br)c2ccccc12
inactive: [7] 106 % of control | [8] 110 % of control | [9] 109 % of control

C[n+]1c2ccccc2c(Nc2ccc(NS(=O)(=O)CCCCN=C(N)N)cc2)c2ccc(N)cc21
inactive: dose: 0.75 mg/kg/injection, schedule: Q01DX005 (ip), vehicle: Klucel (hydroxypropylcellulose) (HPC) 113 % of control | dose: 1.5 mg/kg/injection, schedule: Q01DX005 (ip), vehicle: Klucel (hydroxypropylcellulose) (HPC) 122 % of control
active: dose: 3.0 mg/kg/injection, schedule: Q01DX005 (ip), vehicle: Klucel (hydroxypropylcellulose) (HPC) 151 % of control
